Assay results: patent US20040180855A1, “Methods of treating thrombosis with reduced risk of increased bleeding times” (priority 2003, published 2004)

How the values were obtained:
human factor Xa = target: T1, human factor Xa (Homo sapiens, UniProt P00742); experiment: Selectivity assay factor Xa; assay type: biochemical; conditions: Table 3; read-out: IC50 (μM) FXa
T1 construct: Factor IXa then converts Factor X to Factor Xa; purchased Kabi Vitrum

human plasma = experiment: APTT clotting time, human plasma; assay type: biochemical
Text: The term “APTT” as used herein means “activated partial thromboplastin times” which is intended to refer to the time elapsed between the formation of an assay solution and the detection of clot formation in the assay solution with use of an APTT assay, i.e., an assay employing an intrinsic pathway activator, such as micronized silica, and a phospholipid component of a thromboplastin reagent (without tissue factor protein) for evaluating coagulation associated with the intrinsic pathway.
PT and APTT clotting times were determined as described in Balasubramanian et al., J. Med. Chem., Vol. 36 (1993), at pp. 300-03, incorporated herein by reference. The whole blood aggregation response of rat platelets to collagen was determined using the impedance procedure for a Model 560-CA Chrono-Log aggregometer (Havertown, Pa.).

[1] = tested on: renal cortex bleeding time; experiment: Renal cortex bleeding time (RCBT) model; assay type: in vivo; conditions: rat, i.v. 12+12 and 24+24 mg/kg+mg/kg/hr, pre- vs post-treatment, FIG. 5
Experimental: Experimental Bleeding Time Two models of bleeding time were performed, namely, a renal cortex bleeding model (using template incision of the renal cortex), and a mesenteric artery bleeding model (using severance of small mesenteric arteries).
In the renal cortex bleeding time (RCBT) model, both kidneys were exposed by a midline abdominal incision, and the renal capsules were removed to expose the bare renal cortex which was superfused with Ringer's solution maintained at 37° C. […] While observing under 3×-binocular magnifier, the time in sec from injury until bleeding stopped was recorded. Three bleeding times were determined on the right kidney before, and on the left kidney 15 min after, the start of test article infusion. […]
Statistical Analysis In the venous and arterial thrombosis procedures, treatment effects on thrombus weight, baseline blood flow, and average blood flow during thrombosis were determined by analysis of variance with Dunnett's test for comparison to the vehicle group. […] Treatment effects on bleeding times were determined by analysis of variance with Dunnett's test for comparison to the vehicle group. Both post-treatment and pre-treatment bleeding times and the relative bleeding time increases in sec were analyzed. […]

rat plasma (ex vivo PT) = experiment: Ex vivo clotting time PT; assay type: in vivo; conditions: loading plus sustaining i.v. infusion
Experimental: Ex Vivo Clotting Times Ex vivo clotting time assays were used to determine the level of anticoagulation achieved in the thrombosis and bleeding time procedures, described above. A small organic compound for inhibiting Factor XIa was administered at doses (mg/kg+mg/kg/hr) of 0.5+0.5 (n=3), 2+2 (n=4), 6+6 (n=3), 12+12 (n=3) and 24+24 (n=10). Carotid artery blood (0.6 mL drawn into 1/10 volume of 3.8% Na-citrate) was sampled before (0 min control) and at 5, 15, 30, 60 and 90 min after the start of the compound infusion. The APTT was determined in freshly prepared plasma from each sample using the standard procedure for Dade Actin FSL reagent (Baxter Healthcare Corp., Miami, Fla.). The PT was determined in some animals from the 6+6 (n=3), 12+12 (n=3) and 24+24 (n=2) dose groups using Dade Thromboplastin●C reagent.
Plasma was sampled before (0 min control) and after the infusion, at intervals of 5, 15, 30, 60 and 90 min after initiating the infusion. Average APTT increases over the 15-90 min period, an interval most applicable to thrombosis and bleeding time protocols, were calculated. Control APTT values averaged 19.9±1.3 seconds overall. The PT was unaltered as expected from in vitro results. […] The range of efficacious doses in venous and arterial thrombosis (2+2, 6+6, 12+12; mg/kg+mg/kg/hr) produced an APTT increase of about 2.8 times control.

T1 sequence (P00742 235-488 limits assumed): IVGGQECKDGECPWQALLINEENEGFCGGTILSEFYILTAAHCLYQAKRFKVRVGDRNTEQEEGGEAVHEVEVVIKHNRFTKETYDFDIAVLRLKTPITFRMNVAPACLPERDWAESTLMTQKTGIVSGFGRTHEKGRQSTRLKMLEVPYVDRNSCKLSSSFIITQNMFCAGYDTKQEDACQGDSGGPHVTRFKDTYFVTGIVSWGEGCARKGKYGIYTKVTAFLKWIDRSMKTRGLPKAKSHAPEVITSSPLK
T1 sequence (P00742 41-179 partner limits assumed): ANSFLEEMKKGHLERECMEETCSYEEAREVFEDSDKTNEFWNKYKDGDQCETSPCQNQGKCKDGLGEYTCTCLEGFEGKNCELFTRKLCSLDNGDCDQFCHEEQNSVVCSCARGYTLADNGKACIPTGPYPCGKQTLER

IC50 (human factor Xa): > 33 µM | effect on renal cortex bleeding times [1]: no effect
SMILES: CC(C)(C)NC(=O)N1CCN(C(=O)N2C(=O)[C@H](CCCNC(=N)N)[C@H]2C(=O)O)CC1 [Example 4]
Clotting time APTT (human), concentration that doubles clotting time (human plasma): 0.6 µM | effect on ex vivo PT (rat plasma (ex vivo PT)): unaltered
